Data as given in PubChem BioAssay (NCI).
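Test compounds were applied to cells in 96-well plates for 48 hours at 5 doses. TGI denotes the concentration required for complete inhibition of growth.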

Legend:
Test in all cases: NCI anticancer screen, dose series, 48 h
BT-549 breast = test system: BT-549 breast
MDA-N = test system: MDA-N
DU-145 prostate = test system: DU-145 prostate
U251 CNS = test system: U251 CNS
UO-31 renal = test system: UO-31 renal
SNB-19 CNS = test system: SNB-19 CNS
NCI/ADR-RES ovarian = test system: NCI/ADR-RES ovarian
A498 renal = test system: A498 renal
786-0 renal = test system: 786-0 renal
NCI-H522 lung = test system: NCI-H522 lung
K-562 leukemia = test system: K-562 leukemia
SW-620 colon = test system: SW-620 colon
HS 578T breast = test system: HS 578T breast
SK-MEL-28 melanoma = test system: SK-MEL-28 melanoma
PC-3 prostate = test system: PC-3 prostate
RXF 393 renal = test system: RXF 393 renal
HCT-15 colon = test system: HCT-15 colon
OVCAR-4 ovarian = test system: OVCAR-4 ovarian
HT29 colon = test system: HT29 colon
SF-268 CNS = test system: SF-268 CNS
MCF7 breast = test system: MCF7 breast
HOP-62 NSCLC = test system: HOP-62 NSCLC
ACHN renal = test system: ACHN renal
M14 melanoma = test system: M14 melanoma
SR leukemia = test system: SR leukemia
SK-MEL-5 melanoma = test system: SK-MEL-5 melanoma
MOLT-4 leukemia = test system: MOLT-4 leukemia
NCI-H460 lung = test system: NCI-H460 lung
HCC-2998 colon = test system: HCC-2998 colon
HL-60(TB) leukemia = test system: HL-60(TB) leukemia
EKVX NSCLC = test system: EKVX NSCLC
UACC-257 melanoma = test system: UACC-257 melanoma
NCI-H23 lung = test system: NCI-H23 lung
COLO 205 colon = test system: COLO 205 colon
SF-295 CNS = test system: SF-295 CNS
LOX IMVI melanoma = test system: LOX IMVI melanoma
SN12C renal = test system: SN12C renal
UACC-62 melanoma = test system: UACC-62 melanoma
MDA-MB-435 = test system: MDA-MB-435
CAKI-1 renal = test system: CAKI-1 renal
CCRF-CEM leukemia = test system: CCRF-CEM leukemia
HCT-116 colon = test system: HCT-116 colon
OVCAR-5 ovarian = test system: OVCAR-5 ovarian
KM12 colon = test system: KM12 colon
IGROV1 ovarian = test system: IGROV1 ovarian
SK-OV-3 ovarian = test system: SK-OV-3 ovarian
A549 NSCLC = test system: A549 NSCLC
MDA-MB-231 breast = test system: MDA-MB-231 breast
SK-MEL-2 melanoma = test system: SK-MEL-2 melanoma
RPMI-8226 leukemia = test system: RPMI-8226 leukemia
SNB-75 CNS = test system: SNB-75 CNS
OVCAR-3 ovarian = test system: OVCAR-3 ovarian
TK-10 renal = test system: TK-10 renal
HOP-92 NSCLC = test system: HOP-92 NSCLC
T-47D breast = test system: T-47D breast
OVCAR-8 ovarian = test system: OVCAR-8 ovarian
MALME-3M melanoma = test system: MALME-3M melanoma
SF-539 CNS = test system: SF-539 CNS
NCI-H226 lung = test system: NCI-H226 lung

c1ccc2c3[nH]c(c2c1)=Nc1ccc(cc1)-c1nc2cc(ccc2o1)N=c1[nH]c(c2ccccc12)=Nc1ccc2nc(oc2c1)-c1ccc(cc1)N=3
TGI (BT-549 breast): > 100 µM
TGI (MDA-N): > 100 µM
TGI (DU-145 prostate): > 100 µM
TGI (U251 CNS): > 100 µM
TGI (UO-31 renal): > 100 µM
TGI (SNB-19 CNS): > 100 µM
TGI (NCI/ADR-RES ovarian): > 100 µM
TGI (A498 renal): > 100 µM
TGI (786-0 renal): > 100 µM
TGI (NCI-H522 lung): > 100 µM
TGI (K-562 leukemia): > 100 µM
TGI (SW-620 colon): > 100 µM
TGI (HS 578T breast): > 100 µM
TGI (SK-MEL-28 melanoma): > 100 µM
TGI (PC-3 prostate): > 100 µM
TGI (RXF 393 renal): > 100 µM
TGI (HCT-15 colon): > 100 µM
TGI (OVCAR-4 ovarian): > 100 µM
TGI (HT29 colon): > 100 µM
TGI (SF-268 CNS): > 100 µM
TGI (MCF7 breast): > 100 µM
TGI (HOP-62 NSCLC): > 100 µM
TGI (ACHN renal): > 100 µM
TGI (M14 melanoma): > 100 µM
TGI (SR leukemia): > 100 µM
TGI (SK-MEL-5 melanoma): > 100 µM
TGI (MOLT-4 leukemia): > 100 µM
TGI (NCI-H460 lung): > 100 µM
TGI (HCC-2998 colon): > 100 µM
TGI (HL-60(TB) leukemia): > 100 µM
TGI (EKVX NSCLC): > 100 µM
TGI (UACC-257 melanoma): > 100 µM
TGI (NCI-H23 lung): > 100 µM
TGI (COLO 205 colon): > 100 µM
TGI (SF-295 CNS): > 100 µM
TGI (LOX IMVI melanoma): > 100 µM
TGI (SN12C renal): > 100 µM
TGI (UACC-62 melanoma): > 100 µM
TGI (MDA-MB-435): > 100 µM
TGI (CAKI-1 renal): > 100 µM
TGI (CCRF-CEM leukemia): > 100 µM
TGI (HCT-116 colon): > 100 µM
TGI (OVCAR-5 ovarian): > 100 µM
TGI (KM12 colon): > 100 µM
TGI (IGROV1 ovarian): > 100 µM

N#CC(Cc1ccccc1)N(CCC1=CCCCC1)C(c1ccccc1)c1ccccc1 (stereo not given)
TGI (BT-549 breast): > 100 µM
TGI (SK-OV-3 ovarian): > 100 µM
TGI (A549 NSCLC): > 100 µM
TGI (MDA-N): > 100 µM
TGI (DU-145 prostate): > 100 µM
TGI (U251 CNS): > 100 µM
TGI (UO-31 renal): > 100 µM
TGI (MDA-MB-231 breast): > 100 µM
TGI (SNB-19 CNS): > 100 µM
TGI (NCI/ADR-RES ovarian): > 100 µM
TGI (A498 renal): > 100 µM
TGI (786-0 renal): > 100 µM
TGI (SK-MEL-2 melanoma): > 100 µM
TGI (NCI-H522 lung): 65.9 µM
TGI (K-562 leukemia): > 100 µM
TGI (RPMI-8226 leukemia): > 100 µM
TGI (SNB-75 CNS): > 100 µM
TGI (SW-620 colon): > 100 µM
TGI (HS 578T breast): > 100 µM
TGI (SK-MEL-28 melanoma): > 100 µM
TGI (PC-3 prostate): > 100 µM
TGI (RXF 393 renal): > 100 µM
TGI (HCT-15 colon): > 100 µM
TGI (OVCAR-4 ovarian): > 100 µM
TGI (HT29 colon): > 100 µM
TGI (OVCAR-3 ovarian): > 100 µM
TGI (SF-268 CNS): > 100 µM
TGI (MCF7 breast): > 100 µM
TGI (HOP-62 NSCLC): > 100 µM
TGI (ACHN renal): > 100 µM
TGI (TK-10 renal): > 100 µM
TGI (HOP-92 NSCLC): > 100 µM
TGI (M14 melanoma): > 100 µM
TGI (SK-MEL-5 melanoma): > 100 µM
TGI (MOLT-4 leukemia): > 100 µM
TGI (NCI-H460 lung): > 100 µM
TGI (HCC-2998 colon): > 100 µM
TGI (T-47D breast): > 100 µM
TGI (EKVX NSCLC): > 100 µM
TGI (UACC-257 melanoma): > 100 µM
TGI (NCI-H23 lung): > 100 µM
TGI (OVCAR-8 ovarian): > 100 µM
TGI (COLO 205 colon): > 100 µM
TGI (MALME-3M melanoma): > 100 µM
TGI (SF-295 CNS): > 100 µM
TGI (UACC-62 melanoma): > 100 µM
TGI (MDA-MB-435): > 100 µM
TGI (CAKI-1 renal): > 100 µM
TGI (CCRF-CEM leukemia): > 100 µM
TGI (HCT-116 colon): > 100 µM
TGI (OVCAR-5 ovarian): > 100 µM
TGI (KM12 colon): > 100 µM
TGI (IGROV1 ovarian): > 100 µM

O=C(N/N=C/c1ccc(Cl)cc1)c1c(Cl)c(Cl)c(Cl)c(Cl)c1-c1nc2ccccc2[nH]1
TGI (SF-539 CNS): > 100 µM
TGI (BT-549 breast): > 100 µM
TGI (SK-OV-3 ovarian): > 100 µM
TGI (A549 NSCLC): > 100 µM
TGI (MDA-N): > 100 µM
TGI (DU-145 prostate): > 100 µM
TGI (UO-31 renal): > 100 µM
TGI (SNB-19 CNS): > 100 µM
TGI (NCI/ADR-RES ovarian): > 100 µM
TGI (A498 renal): > 100 µM
TGI (786-0 renal): > 100 µM
TGI (SK-MEL-2 melanoma): > 100 µM
TGI (NCI-H522 lung): > 100 µM
TGI (K-562 leukemia): > 100 µM
TGI (RPMI-8226 leukemia): > 100 µM
TGI (SNB-75 CNS): > 100 µM
TGI (SW-620 colon): > 100 µM
TGI (HS 578T breast): > 100 µM
TGI (SK-MEL-28 melanoma): > 100 µM
TGI (PC-3 prostate): > 100 µM
TGI (RXF 393 renal): > 100 µM
TGI (HCT-15 colon): > 100 µM
TGI (NCI-H226 lung): > 100 µM
TGI (HT29 colon): > 100 µM
TGI (OVCAR-3 ovarian): > 100 µM
TGI (SF-268 CNS): > 100 µM
TGI (MCF7 breast): > 100 µM
TGI (HOP-62 NSCLC): > 100 µM
TGI (ACHN renal): > 100 µM
TGI (HOP-92 NSCLC): > 100 µM
TGI (M14 melanoma): > 100 µM
TGI (SR leukemia): > 100 µM
TGI (SK-MEL-5 melanoma): > 100 µM
TGI (MOLT-4 leukemia): > 100 µM
TGI (NCI-H460 lung): > 100 µM
TGI (HCC-2998 colon): > 100 µM
TGI (T-47D breast): 47.5 µM
TGI (HL-60(TB) leukemia): > 100 µM
TGI (EKVX NSCLC): > 100 µM
TGI (NCI-H23 lung): > 100 µM
TGI (COLO 205 colon): > 100 µM
TGI (MALME-3M melanoma): > 100 µM
TGI (SF-295 CNS): > 100 µM
TGI (LOX IMVI melanoma): > 100 µM
TGI (SN12C renal): > 100 µM
TGI (UACC-62 melanoma): > 100 µM
TGI (MDA-MB-435): > 100 µM
TGI (CAKI-1 renal): > 100 µM
TGI (CCRF-CEM leukemia): > 100 µM
TGI (HCT-116 colon): > 100 µM
TGI (OVCAR-5 ovarian): > 100 µM
TGI (KM12 colon): > 100 µM
TGI (IGROV1 ovarian): > 100 µM

COc1cc(C2CC(C)(O)Oc3cc4c(cc32)OCO4)cc(OC)c1OC (stereo not given)
TGI (SF-539 CNS): 0.518 µM
TGI (BT-549 breast): > 100 µM
TGI (A549 NSCLC): > 100 µM
TGI (MDA-N): 0.43 µM
TGI (DU-145 prostate): > 100 µM
TGI (U251 CNS): 20.1 µM
TGI (MDA-MB-231 breast): 0.851 µM
TGI (SNB-19 CNS): > 100 µM
TGI (A498 renal): > 100 µM
TGI (786-0 renal): > 100 µM
TGI (NCI-H522 lung): 0.661 µM
TGI (K-562 leukemia): > 100 µM
TGI (RPMI-8226 leukemia): 18.7 µM
TGI (SW-620 colon): > 100 µM
TGI (HS 578T breast): 0.696 µM
TGI (SK-MEL-28 melanoma): > 100 µM
TGI (RXF 393 renal): 0.403 µM
TGI (HCT-15 colon): > 100 µM
TGI (OVCAR-4 ovarian): > 100 µM
TGI (HT29 colon): > 100 µM
TGI (OVCAR-3 ovarian): 0.679 µM
TGI (SF-268 CNS): > 100 µM
TGI (MCF7 breast): 23.6 µM
TGI (HOP-62 NSCLC): > 100 µM
TGI (ACHN renal): > 100 µM
TGI (TK-10 renal): > 100 µM
TGI (HOP-92 NSCLC): > 100 µM
TGI (M14 melanoma): > 100 µM
TGI (SR leukemia): > 100 µM
TGI (SK-MEL-5 melanoma): 0.494 µM
TGI (MOLT-4 leukemia): > 100 µM
TGI (NCI-H460 lung): 17.6 µM
TGI (HCC-2998 colon): 34.8 µM
TGI (T-47D breast): > 100 µM
TGI (HL-60(TB) leukemia): 0.638 µM
TGI (EKVX NSCLC): > 100 µM
TGI (UACC-257 melanoma): > 100 µM
TGI (NCI-H23 lung): > 100 µM
TGI (OVCAR-8 ovarian): 6.01 µM
TGI (COLO 205 colon): 2.92 µM
TGI (LOX IMVI melanoma): > 100 µM
TGI (SN12C renal): > 100 µM
TGI (UACC-62 melanoma): > 100 µM
TGI (CAKI-1 renal): > 100 µM
TGI (CCRF-CEM leukemia): > 100 µM
TGI (HCT-116 colon): > 100 µM
TGI (OVCAR-5 ovarian): > 100 µM
TGI (KM12 colon): 0.595 µM
TGI (IGROV1 ovarian): > 100 µM
